Results as given in patent US12441730B2, “PRMT5 inhibitors” (Merck Sharp & Dohme LLC, priority 2019, dated 2025).
Like-named read-outs stand apart in the source and are kept apart here.

How the values were obtained:
[1] = target: T1, Full-length (FL)-PRMT5-MEP50 enzyme complex (Homo sapiens, UniProt O14744); experiment: PRMT5-MEP50 Enzyme Methylation Assay (Version A); format: biochemical
T1 construct: Full-length (FL)-PRMT5-MEP50 enzyme complex (recombinant proteins from baculovirus-transfected Sf21 cells: FL-PRMT5; MW=73837 kDa and FL-MEP50; MW=38614); made in house; host or cells: baculovirus-transfected Sf21 cells
Outline: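 Compound was pre-incubated with enzyme for 60 min, then reacted 150 min at 37° C. at final 1.0 nM PRMT5-MEP50, 15 μM SAM and 75 nM biotinylated H4R3(Me1) peptide, in 50 mM Bicine pH 8.0 with 1% DMSO. SAMDI mass-spectrometric readout of Me1→Me2 conversion. EC50 from 4- or 7-parameter regression.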

[2] = system: symmetric dimethylation of arginine (SDMA) of PRMT5 substrates in MCF-7 cells; experiment: PRMT5 Cell Target Engagement (TE) Assay; format: cell-based; details: Homo sapiens, MCF7, 72 h, 3 days treatment, SDMA high content imaging
Outline: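 Readout is single-cell nuclear symmetric-dimethylarginine immunofluorescence (Alexa488), normalized to DMSO-treated cells. Compounds were applied to MCF-7 cells for 3 days at 37 °C, top concentration 10000 nM in 1:3 steps over ten points; curves fitted with 4-parameter robust fit.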

[3] = second value of 7 parameter biphasic fit, read-out: Enzyme Methylation Assay Version A (EC50 2)
[4] = single EC50 = 4 parameter single site sigmoidal fit, EC50 1 = first value of 7 parameter biphasic fit, read-out: Enzyme Methylation Assay Version A (EC50 or EC50 1)

T1 sequence (O14744 whole entry): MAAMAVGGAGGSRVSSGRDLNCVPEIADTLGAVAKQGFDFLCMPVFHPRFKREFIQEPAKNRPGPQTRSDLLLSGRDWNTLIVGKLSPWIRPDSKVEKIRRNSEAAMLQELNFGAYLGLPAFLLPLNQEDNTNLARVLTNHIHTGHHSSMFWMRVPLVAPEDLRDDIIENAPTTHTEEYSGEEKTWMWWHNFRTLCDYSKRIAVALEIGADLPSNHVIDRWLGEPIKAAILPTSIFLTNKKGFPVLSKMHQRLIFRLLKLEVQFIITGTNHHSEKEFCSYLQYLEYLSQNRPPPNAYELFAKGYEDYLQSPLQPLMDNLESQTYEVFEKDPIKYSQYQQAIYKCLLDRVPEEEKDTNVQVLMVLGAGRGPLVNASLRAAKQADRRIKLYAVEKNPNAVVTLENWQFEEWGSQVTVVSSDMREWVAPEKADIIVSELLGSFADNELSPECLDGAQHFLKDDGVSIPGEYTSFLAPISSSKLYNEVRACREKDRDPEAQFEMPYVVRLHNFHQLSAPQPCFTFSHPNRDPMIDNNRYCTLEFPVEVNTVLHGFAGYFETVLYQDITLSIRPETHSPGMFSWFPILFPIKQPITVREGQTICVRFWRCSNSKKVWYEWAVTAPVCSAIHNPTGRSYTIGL
T1 sequence (Q9BQA1 whole entry partner): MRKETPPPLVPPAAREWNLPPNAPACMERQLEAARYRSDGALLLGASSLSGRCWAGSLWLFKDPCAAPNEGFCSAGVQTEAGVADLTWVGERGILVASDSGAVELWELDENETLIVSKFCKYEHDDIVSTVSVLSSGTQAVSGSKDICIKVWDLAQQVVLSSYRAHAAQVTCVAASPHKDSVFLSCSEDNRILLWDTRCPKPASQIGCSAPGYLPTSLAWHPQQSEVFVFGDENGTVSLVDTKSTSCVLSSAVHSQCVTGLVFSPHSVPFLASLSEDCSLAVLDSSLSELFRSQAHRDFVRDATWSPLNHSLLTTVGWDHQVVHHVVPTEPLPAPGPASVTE

| EC50 [1, 3] [nM] | EC50 [1, 4] [nM] | EC50 [2] [nM] | SMILES |
| --- | --- | --- | --- |
| 7940 | 4.87 | 297 | Cc1cc(-c2onc(C)c2C(=O)N2CC[C@]3(Cc4ccccc4CN3)[C@H](O)C2)no1 [Example 183, (3′,5-dimethyl-[3,5′-biisoxazol]-4′-yl)((3R,3′R)-3′-hydroxy-1,4-dihydro-2H-spiro[isoquinoline-3,4′-piperidin]-1′-yl)methanone] |
| 21900 | 16.2 | 995 | Cc1cc2nnc(C(=O)N3CC[C@]4(Cc5ccccc5CN4)[C@H](O)C3)c(C)n2n1 [Example 184, (4,7-dimethylpyrazolo[5,1-c][1,2,4]triazin-3-yl)((3R,3′R)-3′-hydroxy-1,4-dihydro-2H-spiro[isoquinoline-3,4′-piperidin]-1′-yl)methanone] |
| 26900 | 24 | 1540 | O=C(c1nccn2nccc12)N1CC[C@]2(Cc3ccccc3CN2)[C@H](O)C1 [Example 185, ((3R,3′R)-3′-hydroxy-1,4-dihydro-2H-spiro[isoquinoline-3,4′-piperidin]-1′-yl)(pyrazolo[1,5-a]pyrazin-4-yl)methanone] |
| 501 | 0.241 | 71.2 | Cc1ccc(C(=O)N2CC[C@]3(Cc4ccccc4CN3)[C@H](O)C2)c(-n2nccn2)n1 [Example 186, ((3R,3′R)-3′-hydroxy-1,4-dihydro-2H-spiro[isoquinoline-3,4′-piperidin]-1′-yl)(6-methyl-2-(2H-1,2,3-triazol-2-yl)pyridin-3-yl)methanone] |
| 26900 | 75.9 | 4280 | O=C(c1ccnc(-n2cnnn2)c1)N1CC[C@]2(Cc3ccccc3CN2)[C@H](O)C1 [Example 187, (2-(1H-tetrazol-1-yl)pyridin-4-yl)((3R,3′R)-3′-hydroxy-1,4-dihydro-2H-spiro[isoquinoline-3,4′-piperidin]-1′-yl)methanone] |
| 74100 | 144 | 3320 | O=C(c1ccc2nccn2n1)N1CC[C@]2(Cc3ccccc3CN2)[C@H](O)C1 [Example 188, ((3R,3′R)-3′-hydroxy-1,4-dihydro-2H-spiro[isoquinoline-3,4′-piperidin]-1′-yl)(imidazo[1,2-b]pyridazin-6-yl)methanone] |
| 66100 | 30.2 | 3500 | O=C(c1ccnc2ncnn12)N1CC[C@]2(Cc3ccccc3CN2)[C@H](O)C1 [Example 189, [1,2,4]triazolo[1,5-a]pyrimidin-7-yl((3R,3′R)-3′-hydroxy-1,4-dihydro-2H-spiro[isoquinoline-3,4′-piperidin]-1′-yl)methanone] |
| – | 343 | ≥ 10000 | O=C(c1c[nH]c2ncncc12)N1CC[C@]2(Cc3ccccc3CN2)[C@H](O)C1 [Example 190, [(3R,3′R)-3′-hydroxy-1,4-dihydro-1′H,2H-spiro[isoquinoline-3,4′-piperidin]-1′-yl](1H-pyrrolo[2,3-d]pyrimidin-5-yl)methanone] |
| – | 2880 | ≥ 10000 | Cc1nn(C)c2[nH]c(C(=O)N3CC[C@]4(Cc5ccccc5CN4)[C@H](O)C3)cc(=O)c12 [Example 191, 6-{[(3R,3′R)-3′-hydroxy-1,4-dihydro-1′H,2H-spiro[isoquinoline-3,4′-piperidin]-1′-yl]carbonyl}-1,3-dimethyl-1,7-dihydro-4H-pyrazolo[3,4-b]pyridin-4-one] |
| 34700 | 112 | ≥ 10000 | O=C(c1ccc(-n2cnnn2)cn1)N1CC[C@]2(Cc3ccccc3CN2)[C@H](O)C1 [Example 192, [(3R,3′R)-3′-hydroxy-1,4-dihydro-1′H,2H-spiro[isoquinoline-3,4′-piperidin]-1′-yl][5-(1H-tetrazol-1-yl)-2-pyridinyl]methanone] |
| – | 27000 | 9610 | Cc1ccnc2nc(C(=O)N3CC[C@]4(Cc5ccccc5CN4)[C@H](O)C3)nn12 [Example 193, [(3R,3′R)-3′-hydroxy-1,4-dihydro-1′H,2H-spiro[isoquinoline-3,4′-piperidin]-1′-yl](7-methyl[1,2,d]triazolo[1,5-a]pyrimidin-2-yl)methanone] |
| ≥ 100000 | 479 | ≥ 10000 | O=C(c1cn2ncnc2cn1)N1CC[C@]2(Cc3ccccc3CN2)[C@H](O)C1 [Example 194, [(3R,3′R)-3′-hydroxy-1,4-dihydro-1′H,2H-spiro[isoquinoline-3,4′-piperidin]-1′-yl]([1,2,d]triazolo[1,5-a]pyrazin-6-yl)methanone] |
| – | 15700 | ≥ 10000 | O=C(c1cnc2ncnn2c1)N1CC[C@]2(Cc3ccccc3CN2)[C@H](O)C1 [Example 195, [(3R,3′R)-3′-hydroxy-1,4-dihydro-1′H,2H-spiro[isoquinoline-3,4′-piperidin]-1′-yl]([1,2,d]triazolo[1,5-a]pyrimidin-6-yl)methanone] |
| 6310 | 15.3 | 409 | Cc1ccc(C(=O)N2CC[C@]3(Cc4ccccc4CN3)[C@H](O)C2)c(OCCO)n1 [Example 196, [(3R,3′R)-3′-hydroxy-1,4-dihydro-1′H,2H-spiro[isoquinoline-3,4′-piperidin]-1′-yl][2-(2-hydroxyethoxy)-6-methyl-3-pyridinyl]methanone] |
| 16000 | 14.2 | 1310 | Cc1ccc(C(=O)N2CC[C@]3(Cc4ccccc4CN3)[C@H](O)C2)c(Br)n1 [Example 197, (2-bromo-6-methyl-3-pyridinyl)[(3R,3′R)-3′-hydroxy-1,4-dihydro-1′H,2H-spiro[isoquinoline-3,4′-piperidin]-1′-yl]methanone] |
| 16000 | 19.3 | 1070 | CNc1nc(C)ccc1C(=O)N1CC[C@]2(Cc3ccccc3CN2)[C@H](O)C1 [Example 198, [(3R,3′R)-3′-hydroxy-1,4-dihydro-1′H,2H-spiro[isoquinoline-3,4′-piperidin]-1′-yl][6-methyl-2-(methylamino)-3-pyridinyl]methanone] |
| 7240 | 4.08 | 503 | Cc1ccc(C(=O)N2CC[C@]3(Cc4ccccc4CN3)[C@H](O)C2)c(C2CC2)n1 [Example 199, (2-cyclopropyl-6-methyl-3-pyridinyl)[(3R,3′R)-3′-hydroxy-1,4-dihydro-1′H,2H-spiro[isoquinoline-3,4′-piperidin]-1′-yl]methanone] |
| 3020 | 6.73 | 214 | CCOc1nc(C)ccc1C(=O)N1CC[C@]2(Cc3ccccc3CN2)[C@H](O)C1 [Example 200, (2-ethoxy-6-methyl-3-pyridinyl)[(3R,3′R)-3′-hydroxy-1,4-dihydro-1′H,2H-spiro[isoquinoline-3,4′-piperidin]-1′-yl]methanone] |
| 1020 | 1.36 | 168 | CCCOc1nc(C)ccc1C(=O)N1CC[C@]2(Cc3ccccc3CN2)[C@H](O)C1 [Example 201, [(3R,3′R)-3′-hydroxy-1,4-dihydro-1′H,2H-spiro[isoquinoline-3,4′-piperidin]-1′-yl](6-methyl-2-propoxy-3-pyridinyl)methanone] |
| 16200 | 26.3 | 795 | O=C(c1cn2cccc(F)c2n1)N1CC[C@]2(Cc3ccccc3CN2)[C@H](O)C1 [Example 202, (8-fluoroimidazo[1,2-a]pyridin-2-yl)[(3R,3′R)-3′-hydroxy-1,4-dihydro-1′H,2H-spiro[isoquinoline-3,4′-piperidin]-1′-yl]methanone] |
| 292 | 0.846 | 25.7 | Cc1cc(I)c2nc(C(=O)N3CC[C@]4(Cc5ccccc5CN4)[C@H](O)C3)cn2c1 [Example 203, [(3R,3′R)-3′-hydroxy-1,4-dihydro-1′H,2H-spiro[isoquinoline-3,4′-piperidin]-1′-yl](8-iodo-6-methylimidazo[1,2-a]pyridin-2-yl)methanone] |
| 14600 | 21.9 | 1590 | Cc1ccc(C(=O)N2CC[C@]3(Cc4ccccc4CN3)[C@H](O)C2)c(Cl)n1 [Example 204, (2-chloro-6-methyl-3-pyridinyl)[(3R,3′R)-3′-hydroxy-1,4-dihydro-1′H,2H-spiro[isoquinoline-3,4′-piperidin]-1′-yl]methanone] |
| 2750 | 2.8 | 324 | COc1nc(C)ccc1C(=O)N1CC[C@]2(Cc3ccccc3CN2)[C@H](O)C1 [Example 205, [(3R,3′R)-3′-hydroxy-1,4-dihydro-1′H,2H-spiro[isoquinoline-3,4′-piperidin]-1′-yl](2-methoxy-6-methyl-3-pyridinyl)methanone] |
| 7240 | 4.33 | 363 | O=C(c1cn2cccc(Cl)c2n1)N1CC[C@]2(Cc3ccccc3CN2)[C@H](O)C1 [Example 206, (8-chloroimidazo[1,2-a]pyridin-2-yl)[(3R,3′R)-3′-hydroxy-1,4-dihydro-1′H,2H-spiro[isoquinoline-3,4′-piperidin]-1′-yl]methanone] |
| 288 | 0.382 | 27.6 | Cc1cc(Cl)c2nc(C(=O)N3CC[C@]4(Cc5ccccc5CN4)[C@H](O)C3)cn2c1 [Example 207, (8-chloro-6-methylimidazo[1,2-a]pyridin-2-yl)[(3R,3′R)-3′-hydroxy-1,4-dihydro-1′H,2H-spiro[isoquinoline-3,4′-piperidin]-1′-yl]methanone] |
